Data set [1] in a line: Metabolic stability in human liver microsomes assessed as half-life preincubated for 5 mins followed by NADPH addition and measured upto 60 mins by HPLC-MS/MS analysis. The note with it: time < 65 min. Type of data set: ADME, Microsome. On the technique in general: Liver microsomes are vesicles of endoplasmic reticulum, rich in cytochrome P450 enzymes.
Data set [2] can be described thus: Selectivity index, ratio of CC50 for cytotoxicity against African green monkey Vero cells to EC50 for antiviral activity against Chikungunya virus infected in African green monkey Vero cells assessed as reduction in viral induced cell death. As to conditions: read-out: Ratio CC50/EC50. Type of data set: toxicity, cell-based.
Data set [3] relates to Chikungunya virus. The experiment in a line: Antiviral activity against Chikungunya virus infected in African green monkey Vero cells assessed as reduction in viral induced cell death incubated for 5 days by MTS reagent based absorbance method. Type of data set: functional, organism-based. As to conditions: 120 h. For orientation: Tetrazolium dyes change colour on reduction, which living cells bring about.

Data set [4] relates to Chikungunya virus. In words: Antiviral activity against Chikungunya virus 899 infected in African green monkey Vero cells assessed as log10 reduction in intracellular viral level at 2.22 uM preincubated for 2 hrs with subsequent viral infected followed by media replacement with compound and measured after 48 hrs by qRT-PCR analysis. Type of data set: functional. As to conditions: time 50 hrs. In general terms: Quantitative PCR measures a nucleic acid by following its amplification.

The nature of data set [5]: Aqueous solubility of compound at pH 7.4 by HPLC analysis. Type of data set: physicochemical.
Data set [6] deals with Chikungunya virus. In words: Antiviral activity against Chikungunya virus 899 infected in African green monkey Vero cells assessed as reduction in viral RNA replication preincubated for 2 hrs with subsequent viral infected followed by media replacement with compound and measured after 48 hrs by qRT-PCR analysis. Type of data set: functional, organism-based. As to conditions: dose 0.25-60 µM, time 50.0 hrs.

Data set [7] deals with Caco-2. In words: Induction of apoptosis in human Caco-2 cells assessed as increase in caspase-3 expression at 6.25 to 100 uM incubated for 72 hrs by Western blot analysis. Type of data set: toxicity, cell-based. As to conditions: caco-2, 72 h, dose 6.25-100 µM.
Data set [8] can be described thus: Cytotoxicity against African green monkey Vero cells assessed as reduction in overall metabolic activity incubated for 5 days by MTS reagent based absorbance method. Type of data set: toxicity, cell-based. As to conditions: chlorocebus sabaeus, time 5 day.
Data set [9] deals with Caco-2. In words: Induction of apoptosis in human Caco-2 cells assessed as increase in PARP expression at 6.25 to 100 uM incubated for 72 hrs by Western blot analysis. Type of data set: toxicity, cell-based. The note with it: caco-2, 72 h, dose 6.25-100 µM.
Data set [10] concerns Caco-2. In words: Cytotoxicity against human Caco-2 cells incubated for 24 to 72 hrs by MTT assay. The note with it: time 24-72 hrs. Type of data set: toxicity, cell-based.
In data set [11] the test system is Chikungunya virus. The experiment in a line: Fold resistance , ratio of EC50 for antiviral activity against CHVB-resistant Chikungunya virus infected in African green monkey Vero cells to EC50 for antiviral activity against wildtype Chikungunya virus 899 infected in African green monkey Vero cells. Type of data set: functional.
Data set [12] in a line: Metabolic stability in human liver microsomes assessed as parent compound remaining preincubated for 5 mins followed by NADPH addition and measured upto 60 mins by HPLC-MS/MS analysis. As to conditions: time < 65 min, read-out: Stability. Type of data set: ADME, Microsome.
For a further data set, the system named is Semliki Forest virus. In words: Antiviral activity against Semliki forest virus infected in African green monkey Vero cells assessed as reduction in virus induced cell death. Type of data set: functional, organism-based.
A further data set deals with Enterovirus. In words: Antiviral activity against Human enterovirus 71 infected in African green monkey Vero cells assessed as reduction in virus induced cell death. Type of data set: functional, organism-based.
A further data set has as its system Zika virus. In words: Antiviral activity against Zika virus infected in African green monkey Vero cells assessed as reduction in virus induced cell death. Type of data set: functional, organism-based.
The test system of another data set is Sindbis virus. The experiment in a line: Antiviral activity against Sindbis virus HRsp infected in African green monkey Vero cells assessed as reduction in virus induced cell death. Type of data set: functional, organism-based.
In data set [13] the test system is Chikungunya virus. In words: Antiviral activity against Chikungunya virus 899 infected in African green monkey Vero cells assessed as log10 reduction in intracellular viral level at 60 uM preincubated for 2 hrs with subsequent viral infected followed by media replacement with compound and measured after 48 hrs by qRT-PCR analysis. Type of data set: functional. As to conditions: time 50 hrs.

The target of a further data set is hERG (KCNH2) (Homo sapiens, UniProt Q12809). The experiment in a line: Inhibition of hERG in Xenopus laevis Oocytes upto 30 uM incubated for 10 mins by patch-clamp method relative to control. Type of data set: cell-based, Oocyte. The note with it: Xenopus laevis oocytes expressing hERG.

Values after ≈ are worked out from the molar mass of the structure shown. Active and inactive are the calls of the source. A value given as a limit tells only on which side of the number the result lay.

hERG (KCNH2), sequence (Q12809 whole entry): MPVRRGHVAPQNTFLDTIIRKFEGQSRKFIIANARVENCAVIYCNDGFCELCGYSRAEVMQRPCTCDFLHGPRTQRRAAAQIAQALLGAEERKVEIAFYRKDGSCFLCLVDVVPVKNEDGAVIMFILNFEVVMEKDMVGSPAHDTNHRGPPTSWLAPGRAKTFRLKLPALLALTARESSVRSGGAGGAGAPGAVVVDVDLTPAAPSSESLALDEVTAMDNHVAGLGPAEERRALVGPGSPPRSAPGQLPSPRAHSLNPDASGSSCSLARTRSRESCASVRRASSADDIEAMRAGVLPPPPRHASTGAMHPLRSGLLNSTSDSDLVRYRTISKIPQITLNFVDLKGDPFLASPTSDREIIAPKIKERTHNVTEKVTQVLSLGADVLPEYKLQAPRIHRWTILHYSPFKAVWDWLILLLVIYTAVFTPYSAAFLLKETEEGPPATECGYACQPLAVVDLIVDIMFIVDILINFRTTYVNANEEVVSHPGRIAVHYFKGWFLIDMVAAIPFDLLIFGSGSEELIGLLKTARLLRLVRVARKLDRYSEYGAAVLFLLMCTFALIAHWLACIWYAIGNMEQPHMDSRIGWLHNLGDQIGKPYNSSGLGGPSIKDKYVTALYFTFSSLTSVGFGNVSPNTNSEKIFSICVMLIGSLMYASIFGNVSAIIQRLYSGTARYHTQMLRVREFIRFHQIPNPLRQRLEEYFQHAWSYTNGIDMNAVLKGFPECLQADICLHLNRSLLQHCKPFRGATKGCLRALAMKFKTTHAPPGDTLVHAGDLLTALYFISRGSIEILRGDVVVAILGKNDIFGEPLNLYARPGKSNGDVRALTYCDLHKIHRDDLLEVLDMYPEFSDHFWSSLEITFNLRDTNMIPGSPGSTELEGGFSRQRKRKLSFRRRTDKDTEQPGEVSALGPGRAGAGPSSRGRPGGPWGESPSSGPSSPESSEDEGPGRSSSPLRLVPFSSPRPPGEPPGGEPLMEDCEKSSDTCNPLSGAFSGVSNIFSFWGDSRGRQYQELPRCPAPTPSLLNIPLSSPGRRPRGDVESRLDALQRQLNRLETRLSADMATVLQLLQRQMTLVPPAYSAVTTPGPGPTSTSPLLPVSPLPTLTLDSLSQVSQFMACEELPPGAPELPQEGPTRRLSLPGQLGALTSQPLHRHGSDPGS

As to `CCNc1nc(C)cc(N2CCN(C(=O)c3cccc([N+](=O)[O-])c3)CC2)n1`, the half-life (usually the time needed for the level to fall by half in the phase considered) in data set [1] was over 1 h. Moreover, in data set [2], the selectivity ratio is over 143. Besides, in the data set on Chikungunya virus [3], the EC50 (in general, the concentration needed to bring the measured effect to its halfway point) was found to be 0.7 µM. For the same compound, the “log(activity)” value in the data set on Chikungunya virus [4] is about 4.5. Further, in data set [5], the solubility – broadly, the dissolved amount per volume that the medium holds – is over 120 µM. For the same compound, the Activity entry was “Dose-Dependent Effect” with Chikungunya virus [6], “Non-Toxic” in the data set on Caco-2 [7], “Non-Toxic” with Caco-2 [9] and “Non-Toxic” in the data set with Caco-2 [10]. Also, the cytotoxic concentration (CC50) – broadly, the concentration giving 50% cytotoxicity – at 120 h in data set [8] was over 100 µM. Moreover, the “Ratio EC50” value in the data set with Chikungunya virus [11] was determined as 13.3.

For the compound `CCNc1nc(C)cc(N2CCN(C(=O)c3ccc([N+](=O)[O-])cc3)CC2)n1`, the half-life in data set [1] was over 1 h. Also, in data set [2], the selectivity ratio is over 110. Moreover, in the data set on Chikungunya virus [3], the EC50 was found to be 0.91 µM. The solubility in data set [5] is over 120 µM. Further, the Activity entry with Chikungunya virus [6] is “Dose-Dependent Effect”; in the data set on Caco-2 [7], “Non-Toxic”; in the data set with Caco-2 [9] it was “Non-Toxic”; with Caco-2 [10] it was “Non-Toxic”. Besides, in data set [12], the remaining at 1 h was 100%. Besides, the CC50 at 120 h in [8] is over 100 µM. Also, the “Ratio EC50” value in the data set with Chikungunya virus [11] is 14.

`CCCC(=O)N1CCN(c2nc(C)cc(NCC)n2)CC1`: in the data set on Chikungunya virus [3], the EC50 was 67 µM. For the same compound, the solubility in data set [5] was over 120 µM. Besides, the result in the data set with Semliki Forest virus, in the data set on Enterovirus, in the data set with Zika virus and in the data set on Sindbis virus was inactive.

Regarding `CCCS(=O)(=O)N1CCN(c2nc(C)cc(NCC)n2)CC1`, the EC50 in the data set with Chikungunya virus [3] came out at 70 µM. The compound also showed a solubility in data set [5] of over 120 µM. The outcome with Semliki Forest virus, in the data set on Enterovirus, with Zika virus and in the data set with Sindbis virus was inactive.

On to `CCNc1nc(C)cc(N2CCN(C(=O)c3cccc(Br)c3)CC2)n1`, for which the half-life in data set [1] is over 1 h. Besides, the selectivity ratio in data set [2] is over 107. In the data set on Chikungunya virus [3], the EC50 is 0.94 µM. Also, in [5], the solubility is over 120 µM. Also, the Activity result with Caco-2 [7], in the data set on Caco-2 [9] and with Caco-2 [10] was “Non-Toxic” each time. In [8], the CC50 at 120 h is over 100 µM.

Turning to `CCNc1nc(C)cc(N2CCN(C(=O)c3ccc(Br)cc3)CC2)n1`, the half-life in data set [1] was over 1 h. In addition, the selectivity ratio in data set [2] was over 159. The EC50 in the data set on Chikungunya virus [3] was determined as 0.6 µM. The “log(activity)” value was about 4.5 with Chikungunya virus [4] and over 5 in the data set with Chikungunya virus [13]. Besides, the solubility in data set [5] is over 120 µM. The Activity result was “Dose-Dependent Effect” in the data set on Chikungunya virus [6], “Non-Toxic” in the data set with Caco-2 [7], “Non-Toxic” with Caco-2 [9] and “Non-Toxic” in the data set on Caco-2 [10]. Also, the CC50 at 120 h in [8] was over 96 µM. Also, the “Ratio EC50” value with Chikungunya virus [11] came out at 8.9.

With `CCNc1nc(C)cc(N2CCN(C(=O)c3ccc([N+](=O)[O-])cc3Cl)CC2)n1`, the half-life in [1] was over 1 h. In the data set with Chikungunya virus [3], the EC50 was over 0.78 µM. For the same compound, the solubility in data set [5] amounted to 111 µM (≈ 44.9 µg/mL). For the same compound, the Activity result in the data set on Chikungunya virus [6] is “Dose-Dependent Effect”; with Caco-2 [7] it was “Non-Toxic”; in the data set with Caco-2 [9] it was “Non-Toxic”; in the data set with Caco-2 [10] it was “Non-Toxic”. Further, the CC50 at 120 h in data set [8] is over 100 µM. For the same compound, in the data set on Chikungunya virus [11], the “Ratio EC50” value came out at 15.1.

With `CCNc1nc(C)cc(N2CCN(C(=O)c3ccc(F)cc3)CC2)n1`, the half-life in data set [1] was over 1 h. The selectivity ratio in data set [2] is 109. In the data set on Chikungunya virus [3], the EC50 amounted to 1.52 µM. In addition, the solubility in data set [5] is over 120 µM. Moreover, the result with Semliki Forest virus, with Enterovirus, in the data set on Zika virus and in the data set with Sindbis virus was inactive. Further, the Activity entry with Caco-2 [7], in the data set with Caco-2 [9] and in the data set with Caco-2 [10] was “Non-Toxic” each time. Also, the CC50 at 120 h in data set [8] worked out at 165 µM.

As to `CCNc1nc(C)cc(N2CCN(C(=O)c3ccc(Cl)c(Cl)c3)CC2)n1`, in [1], the half-life is over 1 h. The selectivity ratio in data set [2] worked out at 81. For the same compound, in the data set with Chikungunya virus [3], the EC50 worked out at 0.57 µM. Moreover, the concentration in solution in data set [5] (solubility) came to 111 µM (≈ 43.8 µg/mL). Further, the Activity entry in the data set with Caco-2 [7], in the data set on Caco-2 [9] and in the data set with Caco-2 [10] was “Non-Toxic” in each case. Moreover, in data set [8], the CC50 at 120 h is 46 µM.

For `CCNc1nc(C)cc(N2CCN(C(=O)c3cc(Cl)cc(Cl)c3)CC2)n1`, the half-life in data set [1] was over 1 h. For the same compound, the selectivity ratio in [2] was 173. For the same compound, the EC50 in the data set on Chikungunya virus [3] was determined as 0.47 µM. The compound also displayed a solubility in data set [5] of 108 µM (≈ 42.6 µg/mL). Besides, the Activity entry in the data set on Chikungunya virus [6] is “Dose-Dependent Effect”; in the data set with Caco-2 [7] it was “Non-Toxic”; in the data set with Caco-2 [9] it was “Non-Toxic”; with Caco-2 [10] it was “Non-Toxic”. Further, in [8], the CC50 at 120 h was determined as 80 µM. In the data set on Chikungunya virus [11], the “Ratio EC50” value amounted to 9.7.

Take `CCNc1nc(C)cc(N2CCN(C(=O)c3ccc(I)cc3)CC2)n1`: the half-life in data set [1] is over 1 h. The selectivity ratio in data set [2] was determined as 82. Also, the EC50 in the data set on Chikungunya virus [3] worked out at 0.7 µM. In data set [5], this compound came in with a solubility of 112 µM (≈ 50.5 µg/mL). For the same compound, the Activity entry with Caco-2 [7], in the data set on Caco-2 [9] and with Caco-2 [10] was “Non-Toxic” in each case. Moreover, the CC50 at 120 h in [8] was 58 µM.

In the case of `O=S(=O)(c1ccc(F)cc1)N1CCN(c2ncccn2)CC1`, the EC50 in the data set with Chikungunya virus [3] was 310 µM. Also, the inhibition – broadly, how much of the control response was suppressed – at 10 min, up to 30 µM against hERG (KCNH2) turned out to be 9.63%. This compound showed a solubility in [5] of 64 µM (≈ 20.6 µg/mL). The outcome in the data set on Semliki Forest virus, in the data set on Enterovirus, in the data set on Zika virus and with Sindbis virus was inactive.

These data come from ChEMBL document CHEMBL5537149, “Design, synthesis, and lead optimization of piperazinyl-pyrimidine analogues as potent small molecules targeting the viral capping machinery of Chikungunya virus” (Eur J Med Chem, 2024).
